Results: patent US10745382B2 (BRISTOL-MYERS SQUIBB COMPANY, priority 2015, dated 2020)
Like-named read-outs stand apart in the source and are kept apart here.

Molecular target: T1, PD-1/PD-L1 (Homo sapiens, UniProt Q9NZQ7)
T1 construct: made in house; host or cells: HEK293T
Assay: PD-1/PD-L1 Homogenous Time-Resolved Fluorescence (HTRF) binding assay
Conditions: PD-L1-His 10 nM, PD-1-Ig 20 nM, read-out: Range or IC50
How it was run: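 Binding was measured by HTRF in dPBS with 0.1% BSA and 0.05% Tween-20. Detection used europium cryptate anti-Ig (1 nM final) and APC anti-His (20 nM final) added over the binding reaction.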

T1 sequence (Q9NZQ7 with tags, fused parts or gaps): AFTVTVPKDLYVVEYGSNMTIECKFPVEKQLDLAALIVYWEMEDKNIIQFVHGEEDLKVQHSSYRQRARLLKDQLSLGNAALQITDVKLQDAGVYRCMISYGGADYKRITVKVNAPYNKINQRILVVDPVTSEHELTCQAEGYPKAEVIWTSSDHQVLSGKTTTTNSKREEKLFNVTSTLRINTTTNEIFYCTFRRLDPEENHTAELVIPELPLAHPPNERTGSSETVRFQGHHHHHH

Row | Compound | IC50 (value given as range class) [nM] | IC50 (numeric IC50) [nM]
1 | Cc1cccc(C)c1COc1cc(OCc2cccc(-c3cccc(OCCCN4CC[C@@H](O)C4)c3C)c2C)c(Cl)cc1CNC(C)(CO)CO [Example 4514, (R)-2-((5-chloro-2-((2,6-dimethylbenzyl)oxy)-4-((3′-(3-(3-hydroxypyrrolidin-1-yl)propoxy)-2,2′-dimethyl-[1,1′-biphenyl]-3-yl)methoxy)benzyl)amino)-2-methylpropane-1,3-diol] | 100 to 2000 | 
2 | Cc1c(COc2cc(OCc3cncc(C#N)c3)c(CN(C)[C@@H](CCO)C(=O)O)cc2Cl)cccc1-c1cccc(OCCCN2CC[C@@H](O)C2)c1C [Example 4135, N-(5-chloro-2-((5-cyanopyridin-3-yl)methoxy)-4-((3′-(3-((R)-3-hydroxypyrrolidin-1-yl)propoxy)-2,2′-dimethyl-[1,1′-biphenyl]-3-yl)methoxy)benzyl)-N-methyl-L-homoserine] | 0.21 to 10 | 
3 | Cc1c(COc2cc(OCc3cncc(C#N)c3)c(CN3CCCC[C@H]3C(=O)O)cc2Cl)cccc1-c1cccc(OCCCNC[C@H](O)CO)c1C [Example 2333, (S)-1-(5-chloro-2-((5-cyanopyridin-3-yl)methoxy)-4-((3′-(3-(((S)-2,3-dihydroxypropyl)amino)propoxy)-2,2′-dimethyl-[1,1′-biphenyl]-3-yl)methoxy)benzyl)piperidine-2-carboxylic Acid] |  | 0.9
4 | Cc1c(COc2cc(OCc3cncc(C#N)c3)c(CN3CCCC[C@H]3C(=O)O)cc2Cl)cccc1-c1cccc(OCCCN2CCC(O)(C(=O)O)CC2)c1Cl [Example 1097, (S)-1-(4-((3′-(3-(4-carboxy-4-hydroxypiperidin-1-yl)propoxy)-2′-chloro-2-methyl-[1,1′-biphenyl]-3-yl)methoxy)-5-chloro-2-((5-cyanopyridin-3-yl)methoxy)benzyl)piperidine-2-carboxylic Acid] | 0.21 to 10 | 
5 | Cc1c(COc2cc(OCc3cncc(C#N)c3)c(CNC(CO)CO)cc2Cl)cccc1-c1cccc(OCCCN2CCC(O)(C(=O)O)CC2)c1Cl [Example 2056, 1-(3-((2-chloro-3′-((2-chloro-5-((5-cyanopyridin-3-yl)methoxy)-4-(((1,3-dihydroxypropan-2-yl)amino)methyl)phenoxy)methyl)-2′-methyl-[1,1′-biphenyl]-3-yl)oxy)propyl)-4-hydroxypiperidine-4-carboxylic Acid] | 0.21 to 10 | 
6 | Cc1c(COc2cc(OCc3cncc(C#N)c3)c(CN3CCCC[C@H]3C(=O)O)cc2Cl)cccc1-c1cccc(OCCCN2CC[C@@H](O)C2)c1Cl [Example 1510, (S)-1-(5-chloro-4-((2′-chloro-3′-(3-((R)-3-hydroxypyrrolidin-1-yl)propoxy)-2-methyl-[1,1′-biphenyl]-3-yl)methoxy)-2-((5-cyanopyridin-3-yl)methoxy)benzyl)piperidine-2-carboxylic acid] | 0.21 to 10 | 
7 | Cc1c(COc2cc(OCc3cc(Cl)cc(Cl)c3)c(CNC(C)(CO)CO)cc2Cl)cccc1-c1cccc(OCCCN2CC[C@@H](O)C2)c1C [Example 4504, (R)-2-((5-chloro-2-((3,5-dichlorobenzyl)oxy)-4-((3′-(3-(3-hydroxypyrrolidin-1-yl)propoxy)-2,2′-dimethyl-[1,1′-biphenyl]-3-yl)methoxy)benzyl)amino)-2-methylpropane-1,3-diol] | 0.21 to 10 | 
8 | Cc1c(COc2cc(OCc3cncc(C#N)c3)c(CN3C[C@@H](O)C[C@H]3C(=O)O)cc2Cl)cccc1-c1cccc(C(=O)N(C)C)c1C [Example 4033, (2S,4S)-1-(5-chloro-2-((5-cyanopyridin-3-yl)methoxy)-4-((3′-(dimethylcarbamoyl)-2,2′-dimethyl-[1,1′-biphenyl]-3-yl)methoxy)benzyl)-4-hydroxypyrrolidine-2-carboxylic Acid] | 100 to 2000 | 
9 | Cc1c(COc2cc(OCc3cncc(C#N)c3)c(CN[C@@](C)(CO)C(=O)O)cc2Cl)cccc1-c1cccc(OCCCN2CCC(O)C2)c1C#N (stereo in doubt) [Example 3008, (S)-2-((5-chloro-4-((2′-cyano-3′-(3-((R)-3-hydroxypyrrolidin-1-yl)propoxy)-2-methyl-[1,1′-biphenyl]-3-yl)methoxy)-2-((5-cyanopyridin-3-yl)methoxy)benzyl)amino)-3-hydroxy-2-methylpropanoic Acid] | 0.21 to 10 | 
10 | Cc1c(COc2cc(OCc3cncc(C#N)c3)c(CNC[C@H](O)CO)cc2Cl)cccc1-c1cccc(OCCCO)c1Cl [Example 2116, (S)-5-((4-chloro-5-((2′-chloro-3′-(3-hydroxypropoxy)-2-methyl-[1,1′-biphenyl]-3-yl)methoxy)-2-(((2,3-dihydroxypropyl)amino)methyl)phenoxy)methyl)nicotinonitrile] | 0.21 to 10 | 
11 | Cc1c(COc2cc(OCc3cncc(S(C)(=O)=O)c3)c(CN3CCCC[C@H]3C(=O)O)cc2Cl)cccc1-c1cccc(OCCCN2CC(O)C(C(=O)O)C2)c1C (stereo partly drawn) [Example 1074, (2S)-1-(4-((3′-(3-(3-carboxy-4-hydroxypyrrolidin-1-yl)propoxy)-2,2′-dimethyl-[1,1′-biphenyl]-3-yl)methoxy)-5-chloro-2-((5-(methylsulfonyl)pyridin-3-yl)methoxy)benzyl)piperidine-2-carboxylic Acid] | 0.21 to 10 | 
12 | Cc1c(COc2cc(OCc3cncc(C#N)c3)c(CN[C@H](CO)C(=O)O)cc2Cl)cccc1-c1cccc(OCCCN2CCC(O)(C(=O)O)CC2)c1C [Example 1036, (R)-1-(3-((3′-((4-(((1-carboxy-2-hydroxyethyl)amino)methyl)-2-chloro-5-((5-cyanopyridin-3-yl)methoxy)phenoxy)methyl)-2,2′-dimethyl-[1,1′-biphenyl]-3-yl)oxy)propyl)-4-hydroxypiperidine-4-carboxylic Acid] | 0.21 to 10 | 
13 | Cc1c(COc2cc(OCc3cncc(C#N)c3)c(CN3CCCC[C@H]3C(=O)O)cc2Cl)cccc1-c1cccc(CN(C)CCN2CCS(=O)(=O)CC2)c1C [Example 4079, (S)-1-(5-chloro-2-((5-cyanopyridin-3-yl)methoxy)-4-((3′-(((2-(1,1-dioxidothiomorpholino)ethyl)(methyl)amino)methyl)-2,2′-dimethyl-[1,1′-biphenyl]-3-yl)methoxy)benzyl)piperidine-2-carboxylic Acid] |  | 73

Now from value to compound:

Row | IC50 (value given as range class) [nM] | IC50 (numeric IC50) [nM] | Compound
14 | 0.21 to 10 |  | Cc1c(COc2cc(OCc3cncc(C#N)c3)c(CN3CCCC[C@H]3C(=O)O)cc2Cl)cccc1-c1cccc(OCCCN(C)CCO)c1C [Example 2233, (2S)-1-(5-chloro-2-((5-cyanopyridin-3-yl)methoxy)-4-((3′-(3-((2-hydroxyethyl)(methyl)amino)propoxy)-2,2′-dimethylbiphenyl-3-yl)methoxy)benzyl)piperidine-2-carboxylic Acid]
15 | 0.21 to 10 |  | Cc1c(COc2cc(OCc3cncc(C#N)c3)c(CN3CCCC[C@H]3C(=O)O)cc2Cl)cccc1-c1ccc2c(c1)OC(CCN1CC[C@@H](O)C1)CO2 (mixture of isomers) [Example 1504, (2S)-1-(5-chloro-2-((5-cyanopyridin-3-yl)methoxy)-4-((3-(3-(2-((R)-3-hydroxypyrrolidin-1-yl)ethyl)-2,3-dihydrobenzo[b][1,4]dioxin-6-yl)-2-methylbenzyl)oxy)benzyl)piperidine-2-carboxylic acid]
16 | 0.21 to 10 |  | Cc1c(COc2cc(OCc3cncc(C#N)c3)c(CN3CCCC[C@H]3C(=O)O)cc2Cl)cccc1-c1cccc(OCCCN2CCC[C@H](O)C2)c1C [Example 2224, (2S)-1-(5-chloro-2-((5-cyanopyridin-3-yl)methoxy)-4-((3′-(3-((S)-3-hydroxypiperidin-1-yl)propoxy)-2,2′-dimethylbiphenyl-3-yl)methoxy)benzyl)piperidine-2-carboxylic Acid]
17 | 0.21 to 10 |  | Cc1c(OCCCN2CC[C@@H](O)C2)cccc1-c1cccc(COc2cc(OCc3cncc(C#N)c3)c(CN[C@](C)(CO)C(=O)O)cc2Cl)c1 [Example 3015]
18 | 0.21 to 10 |  | COC(=O)[C@H]1CC[C@H](NCCCOc2cccc(-c3cccc(COc4cc(OCc5cncc(C#N)c5)c(CN5CCCC[C@H]5C(=O)O)cc4Cl)c3C)c2C)CC1 [Example 2229, (2S)-1-(5-chloro-2-((5-cyanopyridin-3-yl)methoxy)-4-((3′-(3-((1r,4r)-4-(methoxycarbonyl)cyclohexylamino)propoxy)-2,2′-dimethylbiphenyl-3-yl)methoxy)benzyl)piperidine-2-carboxylic Acid]
19 | 0.21 to 10 |  | Cc1c(COc2cc(OCc3cncc(C#N)c3)c(CN3CCCC[C@H]3C(=O)O)cc2Cl)cccc1-c1cccc(OCCCN2CCCC(CO)C2)c1C (stereo partly drawn) [Example 2206, (2S)-1-(5-chloro-2-((5-cyanopyridin-3-yl)methoxy)-4-((3′-(3-(3-(hydroxymethyl)piperidin-1-yl)propoxy)-2,2′-dimethylbiphenyl-3-yl)methoxy)benzyl)piperidine-2-carboxylic Acid]
20 | 0.21 to 10 |  | Cc1c(COc2cc(OCc3cncc(C#N)c3)c(CN3CCCC[C@H]3C(=O)O)cc2Cl)cccc1-c1cccc(OCCCN2CCCCC2C)c1C (stereo partly drawn) [Example 2245, (2S)-1-(5-chloro-2-((5-cyanopyridin-3-yl)methoxy)-4-((2,2′-dimethyl-3′-(3-(2-methylpiperidin-1-yl)propoxy)biphenyl-3-yl)methoxy)benzyl)piperidine-2-carboxylic Acid]
21 | 0.21 to 10 |  | Cc1c(COc2cc(OCc3cncc(C#N)c3)c(CNC(C)(CO)CO)cc2Cl)cccc1-c1cccc(OCCCNC(=O)Cc2ccccn2)c1Cl [Example 2089, N-(3-((2-chloro-3′-((2-chloro-5-((5-cyanopyridin-3-yl)methoxy)-4-(((1,3-dihydroxy-2-methylpropan-2-yl)amino)methyl)phenoxy)methyl)-2′-methyl-[1,1′-biphenyl]-3-yl)oxy)propyl)-2-(pyridin-2-yl)acetamide]
22 | 0.21 to 10 |  | Cc1c(COc2cc(OCc3cncc(C(N)=O)c3)c(CNC[C@H](O)CO)cc2Cl)cccc1-c1cccc(OCCCO)c1Cl [Example 2117, (S)-5-((4-chloro-5-((2′-chloro-3′-(3-hydroxypropoxy)-2-methyl-[1,1′-biphenyl]-3-yl)methoxy)-2-(((2,3-dihydroxypropyl)amino)methyl)phenoxy)methyl)nicotinamide]
